The supplement of paper PMC12592484

What was measured:
Experiment in all cases: drug sensitivity score (DSS2, normalised partial AUC of dose-response, 72 h CellTiter-Glo viability) (DSS (dimensionless)); higher = more sensitive (stronger growth inhibition / cytotoxicity); extreme values may be limits of the assay
CAF#1 = system: CAF#1 (primary prostate cancer-associated fibroblasts of myCAF-like type)
Procedure, shortened: (§1)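 The drug sensitivity score reported here is a partial area under the fitted logistic dose–response curve, divided by the log of the curve's upper asymptote and computed in BREEZE; higher values denote greater sensitivity. Low-passage primary prostate cancer-associated fibroblasts, PF179T, WPMY-1, LNCaP and 22Rv1 cells were seeded into 384-well plates preloaded with compounds at five doses across a 10,000-fold range. CellTiter-Glo 2.0 luminescence gave viability at 72 h, scaled to vehicle and positive-control wells.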

22Rv1 = system: 22Rv1
Procedure, shortened: as §1

CAF#7 = system: CAF#7 (primary prostate cancer-associated fibroblasts of myCAF-like type)
Procedure, shortened: as §1

CAF#2 = system: CAF#2 (primary prostate cancer-associated fibroblasts of iCAF-like type)
Procedure, shortened: as §1

CAF#6 = system: CAF#6 (primary prostate cancer-associated fibroblasts of iCAF-like type)
Procedure, shortened: as §1

CAF#3 = system: CAF#3 (primary prostate cancer-associated fibroblasts of myCAF-like type)
Procedure, shortened: as §1

CAF#5 = system: CAF#5 (primary prostate cancer-associated fibroblasts of myCAF-like type)
Procedure, shortened: as §1

LNCAP = system: LNCAP
Procedure, shortened: as §1

CAF#4 = system: CAF#4 (primary prostate cancer-associated fibroblasts of iCAF-like type)
Procedure, shortened: as §1

PF179T = system: PF179T
Procedure, shortened: as §1

WPMY-1 = system: WPMY-1
Procedure, shortened: as §1

| Structure (SMILES) | drug sensitivity score (CAF#1) | drug sensitivity score (22Rv1) | drug sensitivity score (CAF#7) | drug sensitivity score (CAF#2) | drug sensitivity score (CAF#6) | drug sensitivity score (CAF#3) | drug sensitivity score (CAF#5) | drug sensitivity score (LNCAP) | drug sensitivity score (CAF#4) | drug sensitivity score (PF179T) | drug sensitivity score (WPMY-1) |
| --- | --- | --- | --- | --- | --- | --- | --- | --- | --- | --- | --- |
| C=CCn1c(=O)c2cnc(Nc3ccc(N4CCN(C)CC4)cc3)nc2n1-c1cccc(C(C)(C)O)n1 [Adavosertib] (tested concentration range 1-10000 nM) | 7.3 | 11.9 | 7.3 | 10.3 | 4 | 2.7 | 5.9 | 17 | 8.9 | 10.4 | 21.5 |
| CN(C)C/C=C/C(=O)Nc1cc2c(Nc3ccc(F)c(Cl)c3)ncnc2cc1O[C@H]1CCOC1 [Afatinib] (tested concentration range 0.1-1000 nM) | 0.3 | 3.4 | 0 | 0.3 | 0 | 0 | 0 | 2.7 | 0 | 0 | 0 |
| Cn1ncc(Cl)c1-c1cc(C(=O)N[C@H](CN)Cc2cccc(F)c2)sc1Cl [Afuresertib] (tested concentration range 0.1-1000 nM) | 3.2 | 4.6 | 0 | 1.5 | 0.6 | 0 | 2 | 17 | 1.7 | 0.1 | 0.6 |
| CCc1cc2c(cc1N1CCC(N3CCOCC3)CC1)C(C)(C)c1[nH]c3cc(C#N)ccc3c1C2=O [Alectinib] (tested concentration range 0.1-1000 nM) | 1 | 0.2 | 0 | 0.2 | 0 | 0 | 0.3 | 0.5 | 0 | 0 | 0 |
| COc1cc(Nc2ncc3c(n2)-c2ccc(Cl)cc2C(c2c(F)cccc2OC)=NC3)ccc1C(=O)O [Alisertib] (tested concentration range 1-10000 nM) | 4.9 | 0 | 3.5 | 9.4 | 1.2 | 3.3 | 6 | 9.6 | 4.5 | 7.6 | 16.3 |
| Oc1ncnc2[nH]ncc12 [Allopurinol] (tested concentration range 1-10000 nM) | 0 | 0 | 0 | 0 | 0 | 0 | 0 | 0 | 0 | 0 | 0 |
| Cc1nc(NC(=O)N2CCC[C@H]2C(N)=O)sc1-c1ccnc(C(C)(C)C(F)(F)F)c1 [Alpelisib] (tested concentration range 0.2-2500 nM) | 2.9 | 4.8 | 3.4 | 2.5 | 3 | 2.1 | 3.1 | 1.1 | 2.6 | 0 | 1.3 |
| CN1CC[C@H](c2c(O)cc(O)c3c(=O)cc(-c4ccccc4Cl)oc23)[C@H](O)C1 [Alvocidib] (tested concentration range 1-10000 nM) | 15.9 | 17.4 | 15.4 | 16.8 | 13.9 | 16.5 | 15.4 | 18.2 | 12.7 | 10 | 16.5 |
| CCN(CC)CCNC(=O)c1c(C)[nH]c(/C=C2\C(=O)Nc3ccc(-c4csc(-c5ccccc5)n4)cc32)c1C [Amcasertib] (tested concentration range 1-10000 nM) | 7 | 6.8 | 0 | 2.3 | 0 | 0 | 6.6 | 3.5 | 7.1 | 0 | 0 |
| CCC1(c2ccc(N)cc2)CCC(=O)NC1=O (stereo unspecified) [Aminoglutethimide] (tested concentration range 1-10000 nM) | 0 | 0 | 0 | 0 | 0 | 0.2 | 0 | 0.3 | 0 | 0 | 0 |
| COc1cc(NS(C)(=O)=O)ccc1Nc1c2ccccc2nc2ccccc12 [Amsacrine] (tested concentration range 1-10000 nM) | 3.2 | 10.1 | 7.1 | 6.7 | 3.8 | 3.1 | 2.2 | 17 | 2.4 | 7.7 | 11.1 |
| O=C1CN2Cc3c(ccc(Cl)c3Cl)N=C2N1 [Anagrelide] (tested concentration range 1-10000 nM) | 8.4 | 0 | 8.8 | 0.6 | 0 | 7.2 | 0.6 | 0 | 0 | 0 | 0 |
| CC(C)(C#N)c1cc(Cn2cncn2)cc(C(C)(C)C#N)c1 [Anastrozole] (tested concentration range 1-10000 nM) | 0 | 0 | 0 | 0 | 0 | 0 | 0 | 0 | 0 | 0 | 0 |
| CNC(=O)c1ccc(N2C(=S)N(c3cnc(C#N)c(C(F)(F)F)c3)C(=O)C23CCC3)cc1F [Apalutamide] (tested concentration range 1-10000 nM) | 0.2 | 0 | 0 | 0.8 | 0.2 | 0.8 | 0.1 | 2.7 | 0 | 0.9 | 0 |
| N#CC1(c2ccc(NC(=O)c3cccnc3NCc3ccncc3)cc2)CCCC1 [Apatinib] (tested concentration range 1-10000 nM) | 0 | 0 | 2.2 | 0 | 2.6 | 1.8 | 0 | 5.8 | 0 | 0 | 0 |
| O=C(Nc1ccc(OC(F)(F)Cl)cc1)c1cnc(N2CC[C@@H](O)C2)c(-c2cc[nH]n2)c1 [Asciminib] (tested concentration range 0.1-1000 nM) | 0.5 | 0 | 0 | 0 | 0 | 0 | 0 | 0 | 0 | 0 | 0 |
| CC(C)c1c(C(=O)Nc2ccccc2)c(-c2ccccc2)c(-c2ccc(F)cc2)n1CC[C@@H](O)C[C@@H](O)CC(=O)O [Atorvastatin] (tested concentration range 1-10000 nM) | 4.7 | 3.3 | 5.9 | 8.4 | 5.2 | 6.1 | 5.4 | 1.1 | 3.5 | 3 | 2.7 |
| CC(=O)OC[C@H]1O[C@@H]([S-])[C@H](OC(C)=O)[C@@H](OC(C)=O)[C@@H]1OC(C)=O.CCP(CC)CC.[Au+] [Auranofin] (tested concentration range 0.2-2500 nM) | 3.7 | 5.7 | 7.2 | 5 | 5.4 | 5.1 | 3.5 | 13.1 | 3.3 | 0 | 5.2 |
| Cc1nc2cccc(N)c2c(=O)n1C1CCC(=O)NC1=O (stereo unspecified) [Avadomide] (tested concentration range 1-10000 nM) | 0 | 0 | 0 | 0 | 0 | 0.4 | 0 | 0 | 2.2 | 0.1 | 0 |
| CNC(=O)c1ccccc1Sc1ccc2c(/C=C/c3ccccn3)n[nH]c2c1 [Axitinib] (tested concentration range 1-10000 nM) | 2.8 | 1.6 | 5.5 | 5.1 | 3.3 | 5.5 | 2 | 5.7 | 4.2 | 0.8 | 4.9 |
| Nc1ncn([C@@H]2O[C@H](CO)[C@@H](O)[C@H]2O)c(=O)n1 [Azacitidine] (tested concentration range 1-10000 nM) | 2.3 | 2.8 | 3.2 | 3 | 2.2 | 1.8 | 0.5 | 2.4 | 2.3 | 2.6 | 2 |
| Cc1cc(-c2nc(-c3ccc(OC(F)(F)F)cc3)no2)nn1Cc1ccnc(N2CCN(C3CC3)CC2)c1 [BAY 87-2243] (tested concentration range 0.1-1000 nM) | 0 | 19.8 | 0 | 1.6 | 0 | 0.5 | 0 | 24.8 | 0 | 26.4 | 23.2 |
| O=C(Nc1cccc(Nc2ncc(Br)c(NCCc3cnc[nH]3)n2)c1)N1CCCC1 [BX-912] (tested concentration range 1-10000 nM) | 6.1 | 1.9 | 10 | 7.5 | 6.2 | 7.6 | 8.1 | 3.5 | 3.1 | 7.6 | 9.9 |
| CCS(=O)(=O)N1CC(CC#N)(n2cc(-c3ncnc4[nH]ccc34)cn2)C1 [Baricitinib] (tested concentration range 0.2-2500 nM) | 0 | 0 | 0 | 0 | 0 | 0 | 0 | 0 | 0 | 0 | 0 |
| O=C(/C=C/c1cccc(S(=O)(=O)Nc2ccccc2)c1)NO [Belinostat] (tested concentration range 1-10000 nM) | 10 | 19.6 | 6.6 | 12.3 | 6.8 | 4.8 | 8.6 | 19.5 | 10 | 9.8 | 18.5 |
| Nc1nc(Nc2ccc3c(c2)CC[C@@H](N2CCCC2)CC3)nn1-c1cc2c(nn1)-c1ccccc1CCC2 [Bemcentinib] (tested concentration range 1-10000 nM) | 2.5 | 5 | 2.7 | 3.2 | 5.7 | 8.6 | 4.1 | 5.4 | 1.8 | 5 | 8.5 |
